Results as given in patent US7141564B2, “Nitrogen-containing bicyclic heterocycles for use as antibacterials” (priority 2001, dated 2006).
Where a name gives a salt, the structure may show the parent alone.

assay: MIC of test compounds against various organisms; format: cell-based; settings: versus all these organisms (panel of 10 strains); read-out: MIC

MIC	Compound
≤ 4 µg/mL	COc1ccc2nccc(C(O)C[C@H]3CC[C@H](NCc4ccc5c(c4)NC(=O)CS5)CC3)c2c1 (stereo partly drawn) [Example 21, Trans-6-({4-[2-Hydroxy-2-(6-methoxy-quinolin-4-yl)-ethyl]-cyclohexylamino}-methyl)-4-H-benzo[1,4]thiazin-3-one oxalate salt]
≤ 16 µg/mL	COc1ccc2nccc(NC(=O)[C@H]3CC[C@H](NCc4ccc5c(c4)OCCO5)CC3)c2c1 [Example 11, Trans-4-[(2,3-Dihydro-benzo[1,4]dioxin-6-ylmethyl)-amino]-cyclohexanecarboxylic acid (6-methoxy-quinolin-4-yl)-amide fumarate salt]
≤ 4 µg/mL	COc1ccc2nccc(NC(=O)[C@H]3CC[C@H](NCc4cnc5c(c4)NC(=O)CS5)CC3)c2n1 [Example 13, Trans-4-[(2-Oxo-2,3-dihydro-1H-pyrido[2,3-b][1,4]thiazin-7-ylmethyl)-amino]-cyclohexanecarboxylic Acid (6-methoxy-[1,5]naphthyridin-4-yl)-amide oxalate salt]
≤ 16 µg/mL	COc1ccc2nccc(C(O)C[C@H]3CC[C@H](NCc4ccc5c(c4)OCCO5)CC3)c2c1 (stereo partly drawn) [Example 22, Trans-2-{4-[(2,3-Dihydro-benzo[1,4]dioxin-6-ylmethyl)-amino]-cyclohexyl}-1-(6-methoxy-quinolin-4-yl)-ethanol oxalate salt]
≤ 64 µg/mL	COc1ccc2nccc(NC(=O)[C@H]3CC[C@H](NCc4ccc5scnc5c4)CC3)c2n1 [Example 25, Trans-4-[(Benzothiazol-5-ylmethyl)-amino]cyclohexanecarboxylic acid(6-methoxy-[1,5]naphthyridine-4-yl)amide oxalate salt]
≤ 4 µg/mL	COc1ccc2nccc(NC(=O)[C@H]3CC[C@H](NCc4ccc5c(c4)NC(=O)CS5)CC3)c2n1 [Example 4, Trans-4-[(3-Oxo-3,4-dihydro-2H-benzo[1,4]thiazin-6-ylmethyl)-amino]-cyclohexane carboxylic acid (6-methoxy-[1,5]naphthyridin-4-yl)-amide fumarate salt]
≤ 4 µg/mL	COc1ccc2nccc(NC(=O)C3=CCC(NCc4ccc5c(c4)NC(=O)CS5)CC3)c2n1 (racemic) [Example 150, (R/S)-4-[(3-Oxo-3,4-dihydro-2H-benzo-[1,4]thiazin-6ylmethyl)-amino]-cyclohex-1-ene carboxylic acid (6-methoxy-[1,5]naphthyridin-4-yl)-amide oxalate]
≤ 64 µg/mL	COc1ccc2nccc(C(=O)C[C@H]3CC[C@H](NCc4ccc5c(c4)OCCO5)CC3)c2c1 [Example 27, Trans-2-{4-[(2,3-Dihydro-benzo[1,4]dioxin-6-ylmethyl)-amino]-cyclohexyl}-1-(6-methoxy-quinolin-4-yl)-ethanone oxalate salt]
≤ 64 µg/mL	COc1ccc2nccc(NC(=O)[C@H]3CC[C@H](NCc4cc(N)c5c(c4)NC(=O)CO5)CC3)c2n1 [Example 36, Trans-4-[(8-Amino-3-oxo-3,4-dihydro-2H-benzo[1,4]oxazin-6-ylmethyl)-amino]-cyclohexanecarboxylic acid (6-methoxy)-[1,5]naphthyridin-4-yl)-amide Oxalate]
≤ 4 µg/mL	COc1ccc2nccc(NC(=O)[C@]3(O)CC[C@@H](NCc4ccc5c(n4)NC(=O)CS5)CC3)c2c1 [Example 391, 1-Hydroxy-t-4-[(3-oxo-3,4-dihydro-2H-pyrido[3,2-b][1,4]thiazin-6-ylmethyl)-amino-r-cyclohexanecarboxylic acid (6-methoxy-quinolin-4-yl)-amidedihydrochloride]
≤ 16 µg/mL	COc1ccc2nccc(NC(=O)[C@H]3CC[C@H](NCc4cnc5c(c4)NC(=O)CS5)CC3)c2c1 [Example 14, Trans-4-[(2-Oxo-2,3-dihydro-1H-pyrido[2,3-b][1,4]thiazin-7-ylmethyl)-amino]-cyclohexanecarboxylic acid (6-methoxy-quinolin-4-yl)-amide oxalate salt]
≤ 4 µg/mL	COc1ccc2nccc(NC(=O)[C@H]3CC[C@H](NCc4ccc5nsnc5c4)CC3)c2n1 [Example 2, Trans-4-[(Benzo[1,2,5]thiadiazol-5-ylmethyl)-amino]-cyclohexanecarboxylic acid (6-methoxy-[1,5]naphthyridin-4-yl)-amide fumarate salt]
≤ 4 µg/mL	COc1ccc2nccc(NC(=O)[C@]3(O)CC[C@@H](NCc4ccc5c(c4)NC(=O)CS5)CC3)c2n1 [Example 300, 1-Hydroxy-t-4-[(3-oxo-3,4-dihydro-2H-benzo[1,4]thiazin-6-ylmethyl)-amino]-r-cyclohexanecarboxylic Acid (6-methoxy-[1,5]naphthyridin-4-yl)-amide Dihydrochloride]
≤ 16 µg/mL	COc1ccc2nccc(NC(=O)[C@H]3CC[C@H](NCc4ccc5c(c4)NCCO5)CC3)c2n1 [Example 15, Trans-4-[(3,4-Dihydro-2H-benzo[1,4]oxazin-6-ylmethyl)-amino]-cyclohexanecarboxylic acid (6-methoxy-[1,5]naphthyridin-4-yl)-amide oxalate salt]
≤ 4 µg/mL	COc1ccc2nccc(NC(=O)[C@H]3CC[C@H](NCc4cc5c(cc4F)SCC(=O)N5)CC3)c2n1 [Example 34, Trans-4-[(7-Fluoro-3-oxo-3,4-dihydro-2H-benzo[1,4]thiazin-6-ylmethyl)-amino]-cyclohexanecarboxylic acid (6-methoxy-[1,5]naphthyridin-4-yl)-amide oxalate salt]

Second part, the compound before the results:

Compound	MIC
COc1ccc2nccc(NC(=O)[C@H]3CC[C@H](NCc4cc5cccc(O)c5c(=O)[nH]4)CC3)c2n1 [Example 17, Trans-4-[(8-Hydroxy-1-oxo-1,2-dihydro-isoquinolin-3-ylmethyl)-amino]-cyclohexanecarboxylic acid (6-methoxy-[1,5]naphthyridin-4-yl)-amide dihydrochloride salt]	≤ 16 µg/mL
COc1ccc2nccc(NC(=O)[C@H]3CC[C@H](NCc4ccc5c(n4)NC(=O)CO5)CC3)c2n1 [Example 31, Trans-4-[(3-Oxo-3,4-dihydro-2H-pyrido[3,2-b][1,4]oxazin-6-ylmethyl)-amino]-cyclohexanecarboxylic acid (6-methoxy-[1,5]naphthyridin-4-yl)-amide oxalate]	≤ 4 µg/mL
COc1ccc2nccc(NC(=O)[C@H]3CC[C@H](NCc4cnc5scnc5c4)CC3)c2n1 [Example 16, Trans-4-[(Thiazolo[5,4-b]-pyridin-6-ylmethyl)-amino]-cyclohexanecarboxylic acid (6-methoxy-[1,5]naphthyridin-4-yl)-amide oxalate salt]	≤ 16 µg/mL
COc1ccc2nccc(NC(=O)[C@H]3CC[C@H](NCc4cnc5c(c4)OCCO5)CC3)c2n1 [Example 20, Trans-4-[(2,3-Dihydro-[1,4]dioxino[2,3-b]pyridin-7-ylmethyl)-amino]-cyclohexanecarboxylic acid (6-methoxy-[1,5]naphthyridin-4-yl)-amide oxalate salt]	≤ 4 µg/mL
COc1ccc2nccc(NC(=O)[C@H]3CC[C@H](NCc4cc5c(cn4)OCCO5)CC3)c2n1 [Example 19, Trans-4-[(2,3-Dihydro-[1,4]dioxino[2,3-c]pyridin-7-ylmethyl)-amino]-cyclohexanecarboxylic acid (6-methoxy-[1,5]naphthyridin-4-yl)-amide oxalate salt]	≤ 4 µg/mL
COc1ccc2nccc(NC(=O)C3=CCC(NCc4cc5c(cc4F)OCC(=O)N5)CC3)c2n1 (racemic) [Example 154, (R/S)-4-[(7-Fluoro-3-oxo-3,4-dihydro-2H-benzo[1,4]oxazin-6-ylmethyl)-amino]-cyclohex-1-ene carboxylic acid (6-methoxy-[1,5]naphthyridin-4-yl)-amide oxalate]	≤ 4 µg/mL
COc1ccc2nccc(NC(=O)[C@H]3CC[C@H](NCc4cc5c(c([N+](=O)[O-])c4)OCC(=O)N5)CC3)c2n1 [Example 35, Trans-4-[(8-Nitro-3-oxo-3,4-dihydro-2H-benzo[1,4]oxazin-6-ylmethyl)-amino]-cyclohexanecarboxylic Acid (6-methoxy)-[1,5]naphthyridin-4-yl)-amide Oxalate]	≤ 4 µg/mL
COc1ccc2nccc(NC(=O)[C@]3(O)CC[C@@H](NCc4ccc5c(n4)NC(=O)CS5)CC3)c2n1 [Example 301, 1-Hydroxy-t-4-[(3-oxo-3,4-dihydro-2H-pyrido[3,2-b][1,4]thiazin-6-ylmethyl)-amino]-r-cyclohexanecarboxylic Acid (6-methoxy-[1,5]naphthyridin-4-yl)-amide Dihydrochloride]	≤ 4 µg/mL
COc1ccc2nccc(NC(=O)[C@]3(O)CC[C@@H](NCc4ccc5c(n4)NC(=O)CO5)CC3)c2n1 [Example 305, 1-Hydroxy-t-4-[(3-oxo-3,4-dihydro-2H-pyrido[3,2-b][1,4]oxazin-6-ylmethyl)-amino]-r-cyclohexanecarboxylic Acid (6-methoxy-[1,5]naphthyridin-4-yl)-amide Dihydrochloride]	≤ 4 µg/mL
COc1ccc2nccc(NC(=O)[C@H]3CC[C@H](NCc4ccc5c(c4)oc(=O)n5C)CC3)c2n1 [Example 7, Trans-4-[(3-Methyl-2-oxo-2,3-dihydro-benzooxazol-6-ylmethyl)-amino]-cyclohexanecarboxylic acid (6-methoxy-[1,5]naphthyridin-4-yl)-amide oxalate salt]	≤ 64 µg/mL
NCCCOc1ccc2nccc(NC(=O)[C@H]3CC[C@H](NCc4ccc5c(c4)OCCO5)CC3)c2n1 [Example 29, Trans-4-[(2,3-Dihydro-benzo[1,4]dioxin-6-ylmethyl)-amino]-cyclohexanecarboxylic acid [6-(3-amino-propoxy)-[1,5]naphthyridin-4-yl]-amide dioxalate]	≤ 16 µg/mL
COc1ccc2nccc(NC(=O)[C@H]3CC[C@H](NCc4cc5c(cc4N)OCO5)CC3)c2n1 [Example 24, Trans-4-[(6-Amino-benzo[1,3]dioxol-5-ylmethyl)-amino]-cyclohexanecarboxylic acid (6-methoxy-[1,5]naphthyridin-4-yl)-amide dioxalate salt]	≤ 16 µg/mL
COc1ccc2nccc(NC(=O)[C@]3(O)CC[C@@H](NCc4nc5c(cc4Br)SCC(=O)N5)CC3)c2n1 [Example 304, 1-Hydroxy-t-4-[(7-bromo-3-oxo-3,4-dihydro-2H-pyrido[3,2-b][1,4]thiazin-6-ylmethyl)-amino]-r-cyclohexanecarboxylic Acid (6-methoxy-[1,5]naphthyridin-4-yl)-amide Dihydrochloride]	≤ 4 µg/mL
